In brackets after ≈: the same amount, converted by molar mass. Several values for one entry are separate records, joined by “and”; a condition that tells them apart may be missing. Identical values can stand only once. Like-named read-outs stand apart in the source and are kept apart here.
Assays:
[1] = Thermodynamic parameters of the Vx-770 aqueous solution process; type: physicochemical
Method: As a further parameter of clinical interest, we also determined the aqueous solubility of Vx-770 at body temperature (pH = 7.1). […] The standard enthalpy of solution, estimated from the solubilities at 37°C vs. 25°C, is ΔH^osol = +51.2 kJ/mol, and the standard free energy of solution at 25°C is ΔG^osol = +41.1 kJ/mol (Materials and methods).
The standard enthalpy of solution was calculated as ΔH^osol = ((RT1T2)/(T2−T1))⋅ln(S(T2)/S(T1)), where R = 8.31 Jmol^−1K^−1, T1 = 298 K (25°C), T2 = 310 K (37°C), and S(T1) and S(T2) are the measured aqueous solubilities of Vx-770 at the respective temperatures (pH = 7.1). The standard free energy of solution at T = 298 K (25°C) was calculated as ΔG^osol = −RT⋅ln(S(T)).

[2] = molecular target: T1, WT CFTR (Homo sapiens, UniProt P13569); assay: Macroscopic current recording in excised inside-out patches from Xenopus laevis oocytes; type: biochemical; conditions: for EC50: 2 mM ATP, 25°C, read-out: K0.5 for current stimulation
T1 construct: expressed in transfected cells; host or cells: Xenopus laevis oocytes injected with cRNA transcribed from pGEMHE-CFTR
T1 sequence (P13569 whole entry): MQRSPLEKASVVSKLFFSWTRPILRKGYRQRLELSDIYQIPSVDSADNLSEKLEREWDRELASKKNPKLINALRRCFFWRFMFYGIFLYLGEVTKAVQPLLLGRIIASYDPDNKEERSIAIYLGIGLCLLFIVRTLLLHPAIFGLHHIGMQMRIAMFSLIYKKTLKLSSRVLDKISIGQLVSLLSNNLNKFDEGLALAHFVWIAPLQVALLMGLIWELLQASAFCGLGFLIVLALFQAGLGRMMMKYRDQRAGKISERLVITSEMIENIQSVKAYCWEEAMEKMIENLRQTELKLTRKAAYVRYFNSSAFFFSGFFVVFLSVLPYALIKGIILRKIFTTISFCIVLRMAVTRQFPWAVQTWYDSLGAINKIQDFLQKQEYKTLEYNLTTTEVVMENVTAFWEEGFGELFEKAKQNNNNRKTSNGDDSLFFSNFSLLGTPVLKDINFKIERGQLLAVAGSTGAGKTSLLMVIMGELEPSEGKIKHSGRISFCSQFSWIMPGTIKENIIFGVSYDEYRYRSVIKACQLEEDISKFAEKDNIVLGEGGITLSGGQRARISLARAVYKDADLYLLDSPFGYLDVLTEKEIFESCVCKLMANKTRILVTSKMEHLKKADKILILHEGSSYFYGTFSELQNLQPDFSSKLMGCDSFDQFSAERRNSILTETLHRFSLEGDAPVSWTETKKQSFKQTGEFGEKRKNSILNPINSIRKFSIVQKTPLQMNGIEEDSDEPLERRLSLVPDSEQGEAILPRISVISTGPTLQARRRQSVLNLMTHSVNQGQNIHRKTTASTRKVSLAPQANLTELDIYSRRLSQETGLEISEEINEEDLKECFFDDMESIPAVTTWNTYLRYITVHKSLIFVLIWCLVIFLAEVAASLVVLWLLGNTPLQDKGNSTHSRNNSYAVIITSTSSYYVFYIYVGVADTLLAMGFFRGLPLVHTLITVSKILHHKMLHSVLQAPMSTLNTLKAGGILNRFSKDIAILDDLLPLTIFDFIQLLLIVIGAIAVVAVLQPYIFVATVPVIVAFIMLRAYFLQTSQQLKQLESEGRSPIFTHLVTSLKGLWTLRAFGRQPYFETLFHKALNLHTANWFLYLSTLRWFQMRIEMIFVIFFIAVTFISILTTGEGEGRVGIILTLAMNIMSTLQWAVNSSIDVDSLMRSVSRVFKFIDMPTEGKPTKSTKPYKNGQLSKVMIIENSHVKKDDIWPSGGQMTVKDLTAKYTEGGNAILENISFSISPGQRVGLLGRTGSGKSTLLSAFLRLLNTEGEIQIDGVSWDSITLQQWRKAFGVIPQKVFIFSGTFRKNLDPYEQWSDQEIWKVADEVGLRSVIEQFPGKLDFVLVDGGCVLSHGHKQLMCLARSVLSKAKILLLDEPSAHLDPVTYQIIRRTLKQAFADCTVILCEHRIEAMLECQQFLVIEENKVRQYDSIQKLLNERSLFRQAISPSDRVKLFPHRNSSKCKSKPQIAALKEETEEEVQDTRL
From the text: We reasoned that this circumstance might explain some of the puzzling features of the drug, such as CFTR channel inactivation observed in some cases ([Cholon et al., 2014]), as well as apparent irreversibility of drug effects ([Jih and Hwang, 2013]; [Lin et al., 2016]; [Yeh et al., 2015]; [Yeh et al., 2017]; [Wang et al., 2014]; [Wang et al., 2018]). To investigate stability and reversibility of Vx-770 effects in a concentration range that can be achieved in the human body during oral drug administration, we tested the effects of our 1x saturated Vx-770 solution and its dilutions in inside-out patches excised from Xenopus laevis oocytes expressing WT or mutant human CFTR channels.
Patch pipette solution contained (in mM): 136 NMDG-Cl, 2 MgCl2, 5 HEPES, pH = 7.4 with NMDG. Bath solution contained (in mM): 134 NMDG-Cl, 2 MgCl2, 5 HEPES, 0.5 EGTA, pH = 7.1 with NMDG. MgATP (2 mM) was added from a 400 mM aqueous stock solution (pH = 7.1 with NMDG). Before each experiment 300 nM catalytic subunit of PKA (Sigma-Aldrich Kft., Budapest, Hungary) was applied for ~1 min to phosphorylate CFTR channels. Vx-770 (Selleck Chemicals) was diluted into the bath solution either from a ‘1x saturated’ aqueous stock solution (see above, concentration ~62 nM), or from a commercially obtained 10 mM stock dissolved in DMSO (Selleck Chemicals). Following patch excision the patch pipette was moved into a flow chamber, and recordings were done under continuous superfusion of the cytosolic patch surface. Solution compositions were exchanged using computer-driven electronic valves (solution exchange time constant <50 ms). After each recording day perfusion tubings were extensively washed with distilled water. Although supersaturated solutions of Vx-770 were not employed here, any perfusion tubing that had ever been in contact with a given concentration of Vx-770 was subsequently used only for solutions that contained the same, or higher, concentrations of the drug. After every 5–6 experimental days the entire perfusion system was replaced. Currents were recorded at 25°C, at a membrane potential of −40 mV, digitized at 10 kHz, Gaussian-filtered at 2 kHz, and recorded to disk (Axopatch 200B, Digidata 1322A, Pclamp9 (Molecular Devices, RRID: SCR_011323)). For display purposes, currents are shown filtered at 10 Hz and sampled at 20 Hz, and expanded single-channel traces (Figure 2b, Figure 4d) are shown filtered at 50 Hz and sampled at 250 Hz.
Vx-770 was applied after currents elicited by 2 mM ATP had stabilized. To allow for full development of its potentiator effect, Vx-770 was superfused until the current reached steady state which, for low nanomolar Vx-770, required up to 5–6 min. After full stimulation, Vx-770 was washed off for at least 5 min to allow the current to decline to a post-drug steady state. Fractional current stimulation by Vx-770 (I/Icontrol) was calculated as the mean steady current in the presence of the drug, divided by the average of the pre- and post-drug mean steady currents. Dose response curves (Figure 3c,f) were least-squares fitted to the modified Hill equation I/Icontrol=(K0.5^n+(Imax/Icontrol)[Vx-770]^n)/(K0.5^n+[Vx-770]^n), with Imax/Icontrol, K0.5, and n as free parameters.
To obtain apparent deactivation rates, current decay time courses following Vx-770 removal were fitted by single exponentials using least squares, and deactivation rates defined as the inverse of the decay time constant (1/τoff; Figure 4c). To obtain apparent activation rates, current activation time courses upon Vx-770 addition were fitted to an empirical three-step kinetic scheme S1→S2→S3→S4. Compound states S1-S4 in this scheme are not interpreted as channel conformational states, but rather as states of the entire system (aqueous solution +patch membrane leaflets + channels), and could reflect various stages of drug distribution among those compartments. […]

[3] = Determination of Vx-770 solubility profile (incremental solvent addition; saturated saline, 1-octanol extraction, spectrophotometry at 311 nm); type: physicochemical; conditions: aqueous saline (standard bath solution), read-out: aqueous solubility Saq
[4] = tested on: WT CFTR; conditions: cited from earlier work
[5] = diluted from 10 mM DMSO-based stock

TΔS^osol ([1]; 25°C): +10.1 kJ/mol | standard free energy of solution ΔG^osol ([1]; 25°C): +41.1 kJ/mol | standard enthalpy of solution ΔH^osol ([1]; from aqueous solubilities at 37°C vs. 25°C, pH 7.1): +51.2 kJ/mol | apparent activation time constant τ* ([2]; 0.01x saturated Vx-770 (assigned by b20: slower at low concentration), Figure 4a): 155 s | current stimulation ([2]; 1x saturated (~62 nM) Vx-770, 2 mM ATP, prephosphorylated channels, -40 mV): ~ 4 fold | time constant τ of current decline following drug removal ([2]; after 1x saturated (~62 nM) Vx-770, Figure 2a): 145 s | time constant τ of current decline following drug removal ([2]; after 1x saturated Vx-770): ~ 2 min | Hill coefficient [2, 5]: 1.32±0.47 | EC50 [2, 5]: 0.49 ± 0.15 nM | Hill coefficient ([2]; diluted from 1x saturated aqueous stock): 1.31±0.65 | EC50 ([2]; diluted from 1x saturated aqueous stock, assuming 62 nM): 0.47 ± 0.12 nM | delay of onset of current stimulation ([2]; subnanomolar/low nanomolar aqueous drug concentrations): ≤ 1 min | reversibility of Vx-770 effects ([2]; upon removal of 1x saturated Vx-770): full reversibility | apparent K0.5 lower (affinity higher) than previously reported ([2]; versus ~300 nM reported): ~ 600 fold and 600 fold | solubility ([3]; pH 7.1, 37°C, pH = 7.1, aqueous saline): 0.138 ± 0.001 µM (≈ 0.0542 µg/mL) | solubility at 24 h ([3]; pH 7.4, 25°C, pH = 7.4, aqueous saline): 0.05 ± 0.001 µM (≈ 0.0196 µg/mL)
Structure (SMILES): CC(C)(C)c1cc(C(C)(C)C)c(NC(=O)c2c[nH]c3ccccc3c2=O)cc1O [Vx-770, ivacaftor]
maximal stimulation of WT CFTR channels ([4]; lower end of reported range, ref Cui and McCarty, 2015): ~ 1.1 fold | reversibility of CFTR channel stimulation in cell-free patches ([4]; ref Jih and Hwang, 2013, Lin et al., 2016, Yeh et al., 2015, 2017, Wang et al., 2014, 2018): irreversible | EC50 ([4]; ref Van Goor et al., 2014, Langron et al., 2018, read-out: previously reported K0.5 for stimulation of WT CFTR): ~300 nM | maximal stimulation of WT CFTR channels ([4]; upper end of reported range, ref Wang et al., 2018): ~ 3 fold

From publication PMC6594753, “Cystic fibrosis drug ivacaftor stimulates CFTR channels at picomolar concentrations” (eLife, 2019)
